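1) Cells in 96-well plates. 2) Compound, 48 h, 5 concentrations. 3) Linear interpolation between surrounding doses. 4) Unreached endpoint = highest concentration. GI50 marks 50% less growth.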 The source made the active and inactive calls. Rule as the data show it: active = GI50 up to about 1.1 µM and inactive = higher.
Experiments:
Assay in all cases: NCI anticancer screen, dose series, 48 h
ACHN = test system: ACHN
HCC 2998 = test system: HCC 2998
HL-60 = test system: HL-60
IGROV-1 = test system: IGROV-1
KM12 = test system: KM12
Malme-3M = test system: Malme-3M
NCI-H23 = test system: NCI-H23
NCI-H522 = test system: NCI-H522
SF-268 = test system: SF-268
SK-MEL-2 = test system: SK-MEL-2
SK-MEL-5 = test system: SK-MEL-5
SN12C = test system: SN12C
TK-10 = test system: TK-10
UACC-257 = test system: UACC-257
UACC-62 = test system: UACC-62
HOP-92 = test system: HOP-92

| SMILES | GI50 (ACHN) | GI50 (HCC 2998) | GI50 (HL-60) | GI50 (IGROV-1) | GI50 (KM12) | GI50 (Malme-3M) | GI50 (NCI-H23) | GI50 (NCI-H522) | GI50 (SF-268) | GI50 (SK-MEL-2) | GI50 (SK-MEL-5) | GI50 (SN12C) | GI50 (TK-10) | GI50 (UACC-257) | GI50 (UACC-62) | GI50 (HOP-92) |
| --- | --- | --- | --- | --- | --- | --- | --- | --- | --- | --- | --- | --- | --- | --- | --- | --- |
| COc1cc(C(C)c2cc3c(cc2OCCN)OCO3)cc(OC)c1OC (stereo not given) | > 100 µM (inactive) | > 100 µM (inactive) | 20 µM (inactive) | > 100 µM (inactive) | 28.4 µM (inactive) | > 100 µM (inactive) | 31.8 µM (inactive) | 78.5 µM (inactive) | 73.8 µM (inactive) | 64.3 µM (inactive) | > 10 µM (inactive) | > 100 µM (inactive) | 73.5 µM (inactive) | 6.7 µM (inactive) | 35.5 µM (inactive) |  |
| NC1CCCCC1.O=C(O)C(CP(=O)(O)O)=C(Cl)Cl | > 100 µM (inactive) | > 100 µM (inactive) | > 100 µM (inactive) | > 100 µM (inactive) |  | > 100 µM (inactive) | > 100 µM (inactive) |  | > 100 µM (inactive) | > 100 µM (inactive) |  | > 100 µM (inactive) | > 100 µM (inactive) | > 100 µM (inactive) | > 100 µM (inactive) | > 100 µM (inactive) |
| N=C(N)Cn1cnc2ccccc21 | > 100 µM (inactive) | > 100 µM (inactive) | > 100 µM (inactive) | > 100 µM (inactive) | > 100 µM (inactive) | > 100 µM (inactive) | > 100 µM (inactive) | > 100 µM (inactive) | > 100 µM (inactive) | > 100 µM (inactive) | > 100 µM (inactive) | > 100 µM (inactive) | > 100 µM (inactive) | > 100 µM (inactive) | > 100 µM (inactive) |  |
| Cn1c(C2CCCc3c2c2ccccc2n3C)cc2ccccc21 (stereo not given) | > 318 µM (inactive) | 186 µM (inactive) | 65.5 µM (inactive) | 31.6 µM (inactive) | 30.6 µM (inactive) | 20.5 µM (inactive) | 40.2 µM (inactive) | 40.4 µM (inactive) | 110 µM (inactive) | 85.7 µM (inactive) | 72.9 µM (inactive) | 222 µM (inactive) | > 318 µM (inactive) | 90.2 µM (inactive) | 35.8 µM (inactive) | 1.5 µM (inactive) |
| COC(=O)/C(C#N)=C1\CCC(O)N1 (stereo not given) | > 100 µM (inactive) | > 100 µM (inactive) | > 100 µM (inactive) | > 100 µM (inactive) | > 100 µM (inactive) | > 100 µM (inactive) | > 100 µM (inactive) | > 100 µM (inactive) | > 100 µM (inactive) | > 100 µM (inactive) |  | > 100 µM (inactive) | > 100 µM (inactive) | > 100 µM (inactive) | > 100 µM (inactive) |  |
| C/C(=N/NC(N)=S)C(CN(C)C)C(C1=C(O)c2ccccc2OC1)c1ccccc1 (stereo not given) | > 100 µM (inactive) | > 100 µM (inactive) | > 100 µM (inactive) | > 100 µM (inactive) | > 100 µM (inactive) | > 100 µM (inactive) | > 100 µM (inactive) | > 100 µM (inactive) | > 100 µM (inactive) | > 100 µM (inactive) | > 100 µM (inactive) | > 100 µM (inactive) | > 100 µM (inactive) | > 100 µM (inactive) | > 100 µM (inactive) |  |
| CCCC(=O)C(CC)/C(CCC(=O)N(Cc1ccccc1)Cc1ccccc1)=N/NC(=O)C[N+](C)(C)C (stereo not given) | > 100 µM (inactive) |  | > 100 µM (inactive) | > 100 µM (inactive) | > 100 µM (inactive) | > 100 µM (inactive) | > 100 µM (inactive) | > 100 µM (inactive) | > 100 µM (inactive) | > 100 µM (inactive) | > 100 µM (inactive) | > 100 µM (inactive) |  | > 100 µM (inactive) |  | > 100 µM (inactive) |
| COc1cc2ccnc([C@@H](OC(=O)c3ccccc3)c3ccc(OC)c(OC)c3OC)c2cc1OC | 32.7 µM (inactive) | 36.5 µM (inactive) | 41.8 µM (inactive) | > 100 µM (inactive) | 36.9 µM (inactive) | 36.2 µM (inactive) | 40.6 µM (inactive) | 27.8 µM (inactive) | 52 µM (inactive) | 60.4 µM (inactive) | 23.1 µM (inactive) | 51.6 µM (inactive) | 75.5 µM (inactive) | > 100 µM (inactive) | 56.4 µM (inactive) | 23.3 µM (inactive) |
| CC(SC(=S)Nc1cccc(F)c1)C(=O)O (stereo not given) | 26.5 µM (inactive) | 30.9 µM (inactive) | 13.3 µM (inactive) | 3.85 µM (inactive) | > 10 µM (inactive) |  | 21 µM (inactive) | 13.4 µM (inactive) | 13.6 µM (inactive) | 24.1 µM (inactive) |  | 50.7 µM (inactive) | 29.2 µM (inactive) | 16.6 µM (inactive) | 19 µM (inactive) |  |
| Cc1c(C(=O)C/C(=N\O)C(=O)Nc2cc(Cl)c(Cl)cc2Cl)[n+]([O-])c2ccccc2[n+]1[O-] | 17.5 µM (inactive) | 7.06 µM (inactive) | 16.1 µM (inactive) | 3.71 µM (inactive) | 11.1 µM (inactive) | 9.14 µM (inactive) | 20.9 µM (inactive) | 3.96 µM (inactive) | 17.8 µM (inactive) | 15.2 µM (inactive) | 5.47 µM (inactive) | 4.83 µM (inactive) | 29.2 µM (inactive) | 7.85 µM (inactive) | 4.57 µM (inactive) | 19.2 µM (inactive) |
| CC/N=C(/C#N)NCC | > 100 µM (inactive) | > 100 µM (inactive) | > 100 µM (inactive) | > 100 µM (inactive) | > 100 µM (inactive) | > 100 µM (inactive) | > 100 µM (inactive) | > 100 µM (inactive) | > 100 µM (inactive) | > 100 µM (inactive) | > 100 µM (inactive) | > 100 µM (inactive) | > 100 µM (inactive) | 55.3 µM (inactive) | > 100 µM (inactive) | > 100 µM (inactive) |
| Cc1c2c(ccc3ccccc32)c[n+]2ccccc12 | 44.4 µM (inactive) | 9.46 µM (inactive) | 28.4 µM (inactive) |  | 1.09 µM (active) | 2.25 µM (inactive) | 4.15 µM (inactive) | 4.79 µM (inactive) | 2.01 µM (inactive) | 15.8 µM (inactive) | 3.56 µM (inactive) |  | > 100 µM (inactive) | 10.2 µM (inactive) |  | 40.6 µM (inactive) |
| Cc1nnc2n1N=C(CC(=O)c1ccc(O)cc1O)CN2N | > 100 µM (inactive) | > 100 µM (inactive) | 75.3 µM (inactive) | > 100 µM (inactive) | > 100 µM (inactive) | > 100 µM (inactive) | > 100 µM (inactive) |  | > 100 µM (inactive) | > 100 µM (inactive) | > 100 µM (inactive) | > 100 µM (inactive) | > 100 µM (inactive) | > 100 µM (inactive) | > 100 µM (inactive) |  |
| N=c1c2ccccc2sc2nc3ccccc3n12 | > 100 µM (inactive) | > 100 µM (inactive) | > 100 µM (inactive) | > 100 µM (inactive) | > 100 µM (inactive) | > 100 µM (inactive) | > 100 µM (inactive) | 71.3 µM (inactive) | > 100 µM (inactive) | > 100 µM (inactive) | > 100 µM (inactive) | > 100 µM (inactive) | > 100 µM (inactive) | > 100 µM (inactive) | > 100 µM (inactive) | > 100 µM (inactive) |
| Nc1ccc2n[se]nc2c1 | > 100 µM (inactive) | > 100 µM (inactive) | 42.4 µM (inactive) | > 100 µM (inactive) | 48.1 µM (inactive) | > 100 µM (inactive) | > 100 µM (inactive) |  | > 100 µM (inactive) | 79.1 µM (inactive) | > 100 µM (inactive) | > 100 µM (inactive) | 23.8 µM (inactive) | > 100 µM (inactive) | > 100 µM (inactive) |  |
| OCCSCC/C(=N\N=C(/CCSCCO)c1ccccc1)c1ccccc1 | 74.5 µM (inactive) | > 100 µM (inactive) | 88.5 µM (inactive) | > 100 µM (inactive) | 66.8 µM (inactive) | > 100 µM (inactive) | > 100 µM (inactive) |  | > 100 µM (inactive) | 84.7 µM (inactive) | 88.7 µM (inactive) | > 100 µM (inactive) | > 100 µM (inactive) | > 100 µM (inactive) | > 100 µM (inactive) | 31.1 µM (inactive) |
| CC(C)C(=O)N[C@@H](C)C(=O)N(Cc1ccc2ccccc2c1)N=O | > 100 µM (inactive) | > 100 µM (inactive) |  | 95.9 µM (inactive) | > 10 µM (inactive) | > 100 µM (inactive) |  |  | > 100 µM (inactive) | 98.9 µM (inactive) | > 100 µM (inactive) | > 100 µM (inactive) | > 100 µM (inactive) | > 100 µM (inactive) | 48 µM (inactive) |  |
| COc1ccc(C(=O)Nc2ccccc2C#N)cc1 | > 100 µM (inactive) |  | 54.6 µM (inactive) | > 100 µM (inactive) | > 100 µM (inactive) | > 100 µM (inactive) | > 100 µM (inactive) |  | > 100 µM (inactive) | > 100 µM (inactive) | > 100 µM (inactive) | > 100 µM (inactive) | > 100 µM (inactive) | > 100 µM (inactive) | > 100 µM (inactive) | > 100 µM (inactive) |
| COC1[C@H](NC(=O)OC(C)(C)C)C(=O)N1Cc1ccccc1 (stereo not given in full) | > 100 µM (inactive) | > 100 µM (inactive) | > 100 µM (inactive) | > 100 µM (inactive) | > 100 µM (inactive) | > 100 µM (inactive) | > 100 µM (inactive) |  | > 100 µM (inactive) | > 100 µM (inactive) | > 100 µM (inactive) | > 100 µM (inactive) | > 100 µM (inactive) | > 100 µM (inactive) | > 100 µM (inactive) | 74.6 µM (inactive) |

Source: ChEMBL document CHEMBL1201862, “PubChem BioAssay data set” (2004)
